ChEMBL document CHEMBL1128247, “Prediction of receptor properties and binding affinity of ligands to benzodiazepine/GABAA receptors using artificial neural networks” (J Med Chem, 1995)

biological target: GABA-A receptor; anion channel; experiment: Binding affinity towards benzodiazepine/GABA A receptor.; type: protein-complex assay; set-up: unit not given here

Structure (SMILES)	Log IC50
CC(C)(C)N1C(=O)CN=C(c2ccccc2)c2cc(Cl)ccc21	-2.792
O=C1CN=C(c2ccccc2F)c2ccccc2N1	-1.322
O=C1Nc2ccc(Cl)cc2C(c2ccccc2F)=NC1Cl (centres undefined)	-0.724
CN1C(=O)CN=C(c2ccccc2)c2cc(Cl)c(Cl)cc21	-1.602
CN1C(=O)CN=C(c2ccccc2)c2cc(F)ccc21	-1.23
CN1C(=O)CN=C(c2ccccc2F)c2cc(C#N)ccc21	-1.477
CC1N=C(c2ccccc2)c2cc(Cl)ccc2N(Cl)C1=O (centres undefined)	-1.69
CN1C(=O)CN=C(c2ccccc2)c2cc(N)ccc21	-2.663
O=C1CN=C(c2c(F)cccc2F)c2ccccc2N1	-1.279
O=C1CN=C(c2c(F)cccc2F)c2ccc(Cl)cc2N1	-1.447
O=C1CN=C(c2c(F)cccc2F)c2cc(Cl)ccc2N1	-0.204
O=C1CN=C(c2ccccc2F)c2cc(F)ccc2N1	-0.869
CN1C(=O)CN=C(c2ccccc2)c2cc(C#N)ccc21	-2.58
O=C1CN=C(c2ccccc2C(F)(F)F)c2cc([N+](=O)[O-])ccc2N1	-0.544
[N-]=[N+]=Nc1ccc2c(c1)C(c1ccccc1F)=NCC(=O)N2	-0.724
CC(C)(C)N1C(=O)CN=C(c2ccccc2F)c2cc([N+](=O)[O-])ccc21	-2.477
Cc1ccc2c(c1)NC(=O)CN=C2c1ccccc1F	-1.279
CN1C(=O)CN=C(c2c(F)cccc2F)c2cc(Cl)ccc21	-0.613
C=Cc1ccc2c(c1)C(c1ccccc1)=NCC(=O)N2	-1.38
CCc1ccc2c(c1)C(c1ccccc1)=NCC(=O)N2	-1.556
O=Cc1ccc2c(c1)C(c1ccccc1)=NCC(=O)N2	-1.633
CN1C(=O)CN=C(c2c(F)cccc2F)c2cc(Br)ccc21	-0.38

Structure (SMILES)	Log IC50
CN1C(=O)CN=C(c2ccccc2Cl)c2ccccc21	-0.58
CN1C(=O)CN=C(c2ccccc2F)c2cc(I)ccc21	-0.462
CN1C(=O)CN=C(c2ccccc2F)c2cc(NO)ccc21	-1.982
CN1C(=O)CN=C(c2ccccc2F)c2cc(F)ccc21	-0.708
O=C1CN=C(c2ccccc2F)c2cc([N+](=O)[O-])ccc2N1	-0.176
CN1C(=O)CN=C(c2c(Cl)cccc2Cl)c2cc(Cl)ccc21	-0.74
O=C1CN=C(c2ccccc2F)c2cc(Cl)ccc2N1	-0.301
CN1C(=O)CN=C(c2ccccc2F)c2cc(N)ccc21 [7-AMINO-FLUNITRAZEPAM]	-1.813
Nc1ccc2c(c1)C(c1ccccc1)=NCC(=O)N2 [7-AMINO-NITRAZEPAM]	-2.587
Nc1ccc2c(c1)C(c1ccccc1Cl)=NCC(=O)N2 [7-AMINOCLONAZEPAM]	-1.875
O=C1CN=C(c2ccccc2Cl)c2cc([N+](=O)[O-])ccc2N1 [CLONAZEPAM]	-0.255
O=C1CN=C(c2ccccc2Cl)c2cc(Cl)ccc2N1 [DELORAZEPAM]	-0.255
O=C1CN=C(c2ccccc2)c2cc(Cl)ccc2N1CC(F)(F)F [HALAZEPAM]	-1.964
COCN1C(=O)CN=C(c2ccccc2)c2cc([N+](=O)[O-])ccc21 [MOTRAZEPAM]	-2.633
O=C1CN=C(c2ccccc2)c2cc([N+](=O)[O-])ccc2N1 [NITRAZEPAM]	-1
O=C1CN=C(c2ccccc2)c2cc(Cl)ccc2N1 [NORDAZEPAM]	-0.973
O=C1CN=C(c2ccccc2)c2cc(C(F)(F)F)ccc2N1 [RO-052904]	-1.114
O=C1CN=C(c2ccccc2)c2cc(F)ccc2N1 [RO-053061]	-1.602
CN1C(=O)CN=C(c2ccccc2Cl)c2cc([N+](=O)[O-])ccc21 [RO-054082]	-0.342
CN1C(=O)CN=C(c2ccccc2F)c2ccccc21 [RO-054520]	-1.146
O=C1CN=C(c2c(Cl)cccc2Cl)c2cc(Cl)ccc2N1 [RO-223294]	-0.845
CN1C(=O)C(O)N=C(c2ccccc2)c2cc(Cl)ccc21 (centres undefined) [TEMAZEPAM]	-1.204
